How the values were obtained:
[1] = tested on: brains, heart, liver, muscle, and DRG of the NHPs; test: Maturation of TTM-001 and TTM-002 capsids, NGS enrichment in NHP tissues; format: in vivo; details: relative to AAV9 control
How it was run: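 Variants carry mutations within and flanking the loop IV peptide insert: positions 450–466 were triplet-randomized, while positions 449–466 received low-frequency point mutations. The combined pool went into two NHPs, and each peptide was scored by NGS enrichment ratio against AAV9.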

brain = test: Matured TTM-001 and TTM-002 variants, NGS enrichment in mouse brain; format: in vivo, mice; details: relative to AAV9 control
[2] = NGS fold-enrichment of matured AAV capsid variants, NHP brain, RNA
[3] = NGS fold-enrichment of RNA, NHP brain
[4] = NGS fold-enrichment, DRG of NHPs
[5] = NGS fold-enrichment, NHP liver DNA
[6] = NGS fold-enrichment, NHP liver RNA
[7] = NGS fold-enrichment, NHP muscle
[8] = NGS fold-enrichment, RNA, brain of NHPs
[9] = NGS fold-enrichment, heart of NHPs
[10] = NGS fold-enrichment, liver DNA of NHPs
[11] = NGS fold-enrichment, liver RNA of NHPs
[12] = NGS fold-enrichment, muscle of NHPs
[13] = NGS fold-enrichment, brain of mice
[14] = NGS fold-enrichment, mouse brain

Sequence	Fold Enrichment relative to AAV9, Brain (NHP) [1, 2] [fold]	Fold Enrichment relative to AAV9, DRG (NHP) ([1]; NHP DRG) [fold]	Fold Enrichment relative to AAV9, Heart (NHP) ([1]; NHP heart) [fold]	Fold Enrichment relative to AAV9, Liver DNA (NHP) ([1]; NHP liver, DNA) [fold]	Fold Enrichment relative to AAV9, Liver RNA (NHP) ([1]; NHP liver, RNA) [fold]	Fold Enrichment relative to AAV9, Muscle (NHP) ([1]; NHP muscle) [fold]	Fold Enrichment relative to AAV9, Brain (Mouse) (brain; mouse brain) [fold]	Fold Enrichment relative to AAV9, Brain (NHP) [1, 3] [fold]	Fold Enrichment relative to AAV9, DRG (NHP) [1, 4] [fold]	Fold Enrichment relative to AAV9, DRG (NHP) ([1]; NGS fold-enrichment, NHP DRG) [fold]	Fold Enrichment relative to AAV9, Heart (NHP) ([1]; NGS fold-enrichment, NHP heart) [fold]	Fold Enrichment relative to AAV9, Liver DNA (NHP) [1, 5] [fold]	Fold Enrichment relative to AAV9, Liver RNA (NHP) [1, 6] [fold]	Fold Enrichment relative to AAV9, Muscle (NHP) [1, 7] [fold]	Fold Enrichment relative to AAV9, Brain (NHP) [1, 8] [fold]	Fold Enrichment relative to AAV9, Heart (NHP) [1, 9] [fold]	Fold Enrichment relative to AAV9, Liver DNA (NHP) [1, 10] [fold]	Fold Enrichment relative to AAV9, Liver RNA (NHP) [1, 11] [fold]	Fold Enrichment relative to AAV9, Muscle (NHP) [1, 12] [fold]	Fold Enrichment relative to AAV9, Brain (Mouse) (brain; [14]) [fold]	other results
KAINGSGSPHSKAHNQET	52.973	0.000	0.030	0.058	0.035	0.000	71.809														
KAINGSGSPHSKAQDKQT	54.452	0.000	0.000	0.223	0.044	0.057	56.004														
KAINGSGSPHSKAQDQET								84.080	0.000	0.000	0.000	0.027	0.194	0.000	84.080	0.000	0.027	0.194	0.000	87.637	Fold Enrichment relative to AAV9, Brain (Mouse) (brain; [13]): 87.637 fold
KAINGSGSPHSKAQNAQT									0.000						69.651	0.000	0.142	0.023	0.000		Fold Enrichment relative to AAV9, Brain (Mouse) (brain; [13]): 72.160 fold
KAINGSGSPHSKAQNLAT								101.954	0.000	0.000	10.954	0.239	0.298	8.655	101.954	10.954	0.239	0.298	8.655	116.685	Fold Enrichment relative to AAV9, Brain (Mouse) (brain; [13]): 116.685 fold
KAINGSGSPHSKAQSQQI	56.976	0.000	0.000	0.000	0.000	0.000	57.052														
KAINGYDSPHKSGQKQQT								83.803		0.041	9.491	0.150	0.031	0.000						13.057	
KAINRSGSPHSKAQDQQT	51.262	0.000	0.000	0.036	0.000	0.000	54.631														
KAISGHDSPHKSGLNQQT								78.846		0.000	0.079	0.015	0.000	0.000						11.045	
KATNGSGSPHSKAQNHQT								82.627	0.000	0.000	0.176	0.057	0.155	0.000	82.627	0.176	0.057	0.155	0.000	66.207	Fold Enrichment relative to AAV9, Brain (Mouse) (brain; [13]): 66.207 fold
KAVNGHDSPHKSVQNQQT								81.051		0.448	0.051	0.091	0.665	0.000						11.288	
KAVNVSGSPHSKAQNQQT	54.586	0.000	0.000	0.023	0.000	0.000	57.835														
KEFVGSGSPHSKAQNQQT	58.374	0.000	0.046	0.326	0.088	0.000	128.675														
KEINGRGSPHSKAQNQQT								134.390	0.239	0.239	0.000	0.232	0.000	0.000	134.390	0.000	0.232	0.000	0.000	52.311	Fold Enrichment relative to AAV9, Brain (Mouse) (brain; [13]): 52.311 fold
